{"source": "patent US6525089B1", "about": "“Pharmaceutical composition containing decursin” (Binex Co., Ltd., priority 1998, dated 2003)", "key": {"[1]": {"test_system": "U-937 cells", "test": "Growth inhibition test (trypan blue exclusion)", "type": "cell-based, human", "protocol": "U-937 cells, optioned from Korea Cell Line Bank, was cultured in RPMI 1640 medium (Sigma Co., R-6504) supplemented with 10% fetal bovine serum (FBS). The medium was exchanged every 5 day by 70%. U-937 cells were inoculated into a cell culture dish at concentration of 2×10^5 cells/ml. Then decursin added into the dish at concentration of 10^−8˜10^−6M, then the cells were cultured for 4 days. Trypan blue exclusion test was performed to determine the number of live cells using a hemacytometer, and the percentage of cancer-cell growth inhibition was calculated. Then, the differentiation was induced by treating with 10^−2M diluted ethanol solution containing various amount of decursin in the medium."}, "[2]": {"type": "in vivo, rat", "conditions": "individual rats 1-4, start 200 g, four days after treatment", "protocol": "A total of 10 male SD rats (body weight: 200 g) were used for this experiment. […] The animals were sacrificed and again weighed four days after treatment. […] Blood samples were also taken and left to sit for 30 minutes to isolate the sera, which was used to determine BUN, creatinine and sGPT values as markers of […]."}}, "note": "“And” between values parts separate entries of the source, which are not always exact repeats. Equal entries are not always repeated. Where two headings read alike, the source gives them in different places."}
{"smiles": "CC(C)=CC(=O)O[C@H]1Cc2cc3ccc(=O)oc3cc2OC1(C)C", "note": "[decursin]", "values": [{"measurement": "Growth inhibition rate (%)", "setting": "[1]; 1 × 10^−7M, 4 days (96 hours)", "result": "42.0 ± 6.4", "unit": "%"}, {"measurement": "inhibition at 1 µM", "setting": "[1]; Homo sapiens, U-937, 96 h, 1 × 10^−6M, 4 days (96 hours), read-out: Growth inhibition rate (%)", "result": "52 ± 2.8", "unit": "%"}, {"measurement": "inhibition at 0.1 µM", "setting": "[1]; Homo sapiens, U-937, 96 h, 1 × 10^−7M, 4 days (96 hours), read-out: Growth inhibition rate (%)", "result": "~33", "unit": "%"}, {"measurement": "inhibition at 0.01 µM", "setting": "[1]; Homo sapiens, U-937, 96 h, 1 × 10^−8M, 4 days (96 hours), read-out: Growth inhibition rate (%)", "result": "31 ± 7.8", "unit": "%"}, {"measurement": "inhibition at 0.5 µM", "setting": "[1]; Homo sapiens, U-937, 96 h, 5 × 10^−7M, 4 days (96 hours), read-out: Growth inhibition rate (%)", "result": "48 ± 7.1", "unit": "%"}, {"measurement": "inhibition at 0.05 µM", "setting": "[1]; Homo sapiens, U-937, 96 h, 5 × 10^−8M, 4 days (96 hours), read-out: Growth inhibition rate (%)", "result": "35.5 ± 7.4", "unit": "%"}, {"measurement": "growth inhibition rate (inhibitory effect)", "setting": "[1]; after 96 hours, concentration of 10^−8˜10^−6M", "result": "30-50%"}, {"measurement": "Body weight", "setting": "[2]; post-treatment group (decursin after cisplatin)", "result": "190 g and 185 g and 180 g (2×)"}, {"measurement": "Body weight", "setting": "[2]; pre-treatment group (decursin before cisplatin)", "result": "184 g and 190 g and 180 g (2×)"}]}
